Data published in PubChem BioAssay AID248 (DTP/NCI, 2004).
Values joined by “and” are separate entries in the source; they are usually repeats but may differ in a detail not shown here. Equal entries are not always repeated. Toxic doses and inconclusive results are not listed. Rule as the data show it: active = T/C of 150% or more; inactive = T/C below 125%.

Test system: L1210 leukemia ip in BDF1 mice, survival T/C
Assay: NCI In Vivo Anticancer Drug Screen. Data for tumor model L1210 Leukemia (intraperitoneal) in B6D2F1 (BDF1) mice
Settings: endpoint: mean survival time, higher = longer survival
Summary of the method: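 Tumor cells were implanted, animals were treated, and survival was followed. The result divides the treated measurement by the vehicle-control measurement.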

[1] = dose: 100.0 mg/kg/injection, schedule: Q01DX009 (ip), vehicle: Klucel (hydroxypropylcellulose) (HPC)
[2] = dose: 100.0 mg/kg/injection, schedule: Q04DX003 (ip), vehicle: Klucel (hydroxypropylcellulose) (HPC)
[3] = dose: 100.0 mg/kg/injection, schedule: Q01DX001 (ip), vehicle: carboxymethylcellulose (CMC)
[4] = dose: 200.0 mg/kg/injection, schedule: Q01DX001 (ip), vehicle: carboxymethylcellulose (CMC)
[5] = dose: 400.0 mg/kg/injection, schedule: Q01DX001 (ip), vehicle: carboxymethylcellulose (CMC)
[6] = dose: 50.0 mg/kg/injection, schedule: Q01DX009 (ip), vehicle: saline with Tween-80
[7] = dose: 100.0 mg/kg/injection, schedule: Q01DX009 (ip), vehicle: saline with Tween-80
[8] = dose: 200.0 mg/kg/injection, schedule: Q01DX009 (ip), vehicle: saline with Tween-80
[9] = dose: 200.0 mg/kg/injection, schedule: Q04DX003 (ip), vehicle: Klucel (hydroxypropylcellulose) (HPC)
[10] = dose: 400.0 mg/kg/injection, schedule: Q04DX003 (ip), vehicle: Klucel (hydroxypropylcellulose) (HPC)
[11] = dose: 200.0 mg/kg/injection, schedule: Q01DX009 (ip), vehicle: Klucel (hydroxypropylcellulose) (HPC)
[12] = dose: 400.0 mg/kg/injection, schedule: Q01DX009 (ip), vehicle: Klucel (hydroxypropylcellulose) (HPC)
[13] = dose: 100.0 mg/kg/injection, schedule: Q04DX003 (ip), vehicle: saline with Tween-80
[14] = dose: 200.0 mg/kg/injection, schedule: Q04DX003 (ip), vehicle: saline with Tween-80
[15] = dose: 400.0 mg/kg/injection, schedule: Q04DX003 (ip), vehicle: saline with Tween-80
[16] = dose: 100.0 mg/kg/injection, schedule: Q04DX003 (ip), vehicle: saline
[17] = dose: 200.0 mg/kg/injection, schedule: Q04DX003 (ip), vehicle: saline
[18] = dose: 400.0 mg/kg/injection, schedule: Q04DX003 (ip), vehicle: saline
[19] = dose: 100.0 mg/kg/injection, schedule: Q01DX001 (ip), vehicle: saline
[20] = dose: 200.0 mg/kg/injection, schedule: Q01DX001 (ip), vehicle: saline
[21] = dose: 400.0 mg/kg/injection, schedule: Q01DX001 (ip), vehicle: saline
[22] = dose: 100.0 mg/kg/injection, schedule: Q01DX001 (ip), vehicle: Klucel (hydroxypropylcellulose) (HPC)
[23] = dose: 200.0 mg/kg/injection, schedule: Q01DX001 (ip), vehicle: Klucel (hydroxypropylcellulose) (HPC)
[24] = dose: 400.0 mg/kg/injection, schedule: Q01DX001 (ip), vehicle: Klucel (hydroxypropylcellulose) (HPC)

Measured: T/C

CCOC(=O)c1nn(C)c(=S)[nH]c1=O
inactive: dose: 100.0 mg/kg/injection, schedule: Q01DX Z (ip), vehicle: methylcellulose (MC) 92 % of control | dose: 200.0 mg/kg/injection, schedule: Q01DX Z (ip), vehicle: methylcellulose (MC) 90 % of control

Cc1ccccc1NC(=S)N(C)C
inactive: dose: 25.0 mg/kg/injection, schedule: Q01DX009 (ip), vehicle: Klucel (hydroxypropylcellulose) (HPC) 103 % of control | dose: 25.0 mg/kg/injection, schedule: Q04DX003 (ip), vehicle: Klucel (hydroxypropylcellulose) (HPC) 98 % of control | dose: 50.0 mg/kg/injection, schedule: Q01DX009 (ip), vehicle: Klucel (hydroxypropylcellulose) (HPC) 104 % of control | dose: 50.0 mg/kg/injection, schedule: Q04DX003 (ip), vehicle: Klucel (hydroxypropylcellulose) (HPC) 91 % of control | [1] 103 % of control | [2] 95 % of control and 103 % of control

CC(Cl)CN(Cc1c(O)ccc2ccccc12)CC(C)Cl (configuration not stated)
inactive: [3] 96 % of control | [4] 107 % of control | [5] 101 % of control

[CH3][Sb]([CH3])([CH3])([O]C(=O)CF)[O]C(=O)CF
inactive: dose: 1.25 mg/kg/injection, schedule: Q04DX003 (ip), vehicle: saline with Tween-80 91 % of control | dose: 2.5 mg/kg/injection, schedule: Q04DX003 (ip), vehicle: saline with Tween-80 96 % of control | dose: 5.0 mg/kg/injection, schedule: Q04DX003 (ip), vehicle: saline with Tween-80 110 % of control | dose: 5.0 mg/kg/injection, schedule: Q04DX003 (ip), vehicle: saline 107 % of control

CC1(C)CC(=O)C(C)(C)C(=O)C1
inactive: dose: 6.25 mg/kg/injection, schedule: Q01DX009 (ip), vehicle: saline with Tween-80 103 % of control | dose: 12.5 mg/kg/injection, schedule: Q01DX009 (ip), vehicle: saline with Tween-80 98 % of control | dose: 25.0 mg/kg/injection, schedule: Q04DX003 (ip), vehicle: saline with Tween-80 102 % of control

CC(C)(C#N)NC(=O)NC(C)(C)C#N
inactive: [6] 101 % of control | [7] 97 % of control | [8] 97 % of control

CC(=O)OC1CCC2(C)C(CCC3(C)C2CC=C2C4C(C)C(C)CCC4(C)CCC23C)C1(C)C (configuration not stated)
inactive: [2] 91 % of control | [9] 88 % of control | [10] 90 % of control

C=CCc1cc(Cl)ccc1OCC(=O)O
inactive: dose: 100.0 mg/kg/injection, schedule: Q01DX009 (ip), vehicle: gum acacia 97 % of control | dose: 200.0 mg/kg/injection, schedule: Q01DX009 (ip), vehicle: gum acacia 96 % of control

CCSc1c(Cl)c(Cl)c(Cl)c(Cl)c1Cl
inactive: [1] 97 % of control | [11] 100 % of control | [12] 87 % of control

Cc1ccc(S(=O)(=O)c2ccc(C)cc2)cc1
inactive: dose: 50.0 mg/kg/injection, schedule: Q01DX001 (ip), vehicle: carboxymethylcellulose (CMC) 96 % of control | [3] 111 % of control | [4] 100 % of control | [5] 105 % of control

N/C(=C\C(=O)Cl)C(=O)c1ccccc1
inactive: dose: 100.0 mg/kg/injection, schedule: Q01DX001 (ip), vehicle: saline with Tween-80 106 % of control | dose: 200.0 mg/kg/injection, schedule: Q01DX001 (ip), vehicle: saline with Tween-80 90 % of control | dose: 400.0 mg/kg/injection, schedule: Q01DX001 (ip), vehicle: saline with Tween-80 105 % of control

NC(=O)NC(=O)C1C2C=CC(C2)C1C(=O)NC(N)=O (configuration not stated)
inactive: [13] 100 % of control | [14] 100 % of control | [15] 91 % of control

CCOc1ccc(C(=O)Cc2ccccc2)cc1
inactive: [13] 89 % of control | [14] 86 % of control | [15] 91 % of control

[O-][n+]1ccccc1C(c1ccccc1)c1ccccc1
inactive: [6] 90 % of control | [7] 90 % of control | [8] 90 % of control

O=c1ccc2nc3cc(Cl)ccc3sc-2c1
inactive: [1] 95 % of control | [11] 96 % of control | [12] 87 % of control

Cc1ccc(/C=C2/COC/C(=C\c3ccc(C)cc3)C2=O)cc1
inactive: dose: 6.0 mg/kg/injection, schedule: Q01DX009 (ip), vehicle: saline 96 % of control | dose: 12.0 mg/kg/injection, schedule: Q01DX001 (ip), vehicle: saline 88 % of control | dose: 12.0 mg/kg/injection, schedule: Q01DX009 (ip), vehicle: saline 94 % of control | dose: 25.0 mg/kg/injection, schedule: Q01DX001 (ip), vehicle: saline 93 % of control | dose: 25.0 mg/kg/injection, schedule: Q01DX009 (ip), vehicle: saline 109 % of control

CC(C)N1C(Nc2ccccn2)C(C)(C)C(C)(C)C1Nc1ccccn1 (configuration not stated)
inactive: dose: 100.0 mg/kg/injection, schedule: Q04DX002 (ip), vehicle: gum acacia 110 % of control | dose: 200.0 mg/kg/injection, schedule: Q04DX002 (ip), vehicle: gum acacia 120 % of control | dose: 400.0 mg/kg/injection, schedule: Q04DX002 (ip), vehicle: gum acacia 97 % of control

CCOC(=O)c1cnc2ccc(OC)cc2c1
inactive: dose: 50.0 mg/kg/injection, schedule: Q01DX009 (ip), vehicle: saline + alcohol 111 % of control | dose: 100.0 mg/kg/injection, schedule: Q01DX009 (ip), vehicle: saline + alcohol 93 % of control | [16] 96 % of control | dose: 200.0 mg/kg/injection, schedule: Q01DX009 (ip), vehicle: saline + alcohol 98 % of control | [17] 105 % of control | dose: 400.0 mg/kg/injection, schedule: Q01DX009 (ip), vehicle: saline + alcohol 93 % of control | [18] 94 % of control

COc1cccc(-n2cc(C#N)c3c(C)cc(C)nc32)c1
inactive: [19] 87 % of control | [20] 91 % of control | [21] 87 % of control

COc1ccc(/C=C2\N=C(c3ccco3)OC2=O)cc1Br
inactive: [1] 94 % of control | [11] 94 % of control | [12] 91 % of control

COc1ccccc1-n1c(O)c(N=Nc2ccc(Cl)cc2)c(=O)n(-c2ccc(C)cc2)c1=S
inactive: [22] 98 % of control | [23] 96 % of control | [24] 105 % of control

CNC(=O)C1C2CCC(C2)C1C(=O)NC (configuration not stated)
inactive: dose: 75.0 mg/kg/injection, schedule: Q04DX003 (ip), vehicle: saline 97 % of control | [16] 96 % of control | dose: 150.0 mg/kg/injection, schedule: Q04DX003 (ip), vehicle: saline 95 % of control | [17] 96 % of control | dose: 300.0 mg/kg/injection, schedule: Q04DX003 (ip), vehicle: saline 97 % of control | [18] 96 % of control

Fc1c(F)c(Oc2c(F)c(F)c(C(F)(F)F)c(F)c2F)c(F)c(Oc2c(F)c(F)c(C(F)(F)F)c(F)c2F)c1F
inactive: [22] 96 % of control | [2] 98 % of control | [23] 100 % of control | [9] 95 % of control | [24] 89 % of control | [10] 97 % of control

Cc1cc(Cl)ccc1NS(=O)(=O)c1ccc(Br)cc1
inactive: [7] 97 % of control | [13] 102 % of control | [8] 98 % of control | [14] 100 % of control | dose: 400.0 mg/kg/injection, schedule: Q01DX009 (ip), vehicle: saline with Tween-80 93 % of control | [15] 96 % of control

O=c1[nH]nc(CC(Br)c2ccccc2)o1 (configuration not stated)
inactive: [19] 91 % of control | [16] 103 % of control | [20] 90 % of control | [17] 93 % of control | [21] 99 % of control | [18] 105 % of control

Cc1ccccc1-n1nnc2ccccc2c1=O
inactive: [19] 95 % of control | [16] 95 % of control | [20] 92 % of control | [17] 115 % of control | [21] 89 % of control | [18] 88 % of control
